According to patent publication US7189711B2, “2, 3-benzodiazepine derivatives and pharmaceutical compositions containing the same as the active ingredient” (Egis Gyogyszergyar RT., priority 2000, dated 2007):

Key:
male NMRI mice = experiment: Neuroprotective effect in magnesium chloride induced global cerebral ischemia in mice; type: in vivo; conditions: intraperitoneal, 30 minutes before i.v. saturated magnesium chloride; linear regression over four doses
Description: Neuroprotective Effect in Magnesium Chloride Induced Global Cerebral Ischemia in Mice
The examination was carried out on groups consisting of 10 male NMRI mice weighing 20–25 g. The compounds to be examined were dissolved in a mixture of 5 volumes of 5M aqueous hydrochloric acid and 95 volumes of water, then the pH value of the solution was adjusted to 3 by the addition of 1M aqueous sodium hydroxide solution. The solution obtained was administered intraperitoneally in a volume of 10 ml/kg. Each compound was tested at four increasing dose levels, and a further group of animals was treated only with the vehicle (the latter was the control group). 30 minutes after treatment, all mice received an intravenous injection of saturated aqueous magnesium chloride solution in a volume of 5 ml/kg. This injection caused an immediate cardiac arrest and complete cerebral ischemia. The increase in survival time (i.e. the interval between the injection of magnesium chloride and the last observable gasp) was considered as a measure of the neuroprotective effect according to Berga et al. [Berga, P. et al., Synergistic interactions between piracetam and dihydroergocristine in some animal models of cerebral hypoxia and ischaemia, Arzneim. -Forsch., 36, 1314–1320 (1986)]. Percentage changes in survival time were calculated in comparison to that measured in the control group, and, from the values obtained, the dose prolonging survival by 50% (PD50) was calculated by linear regression analysis.

male Wistar rats = experiment: Duration of action in rats as assessed from the decrease in body core temperature (radiotelemetry); type: in vivo; conditions: intraperitoneal, mean of 6 animals
Description: Duration of Action in Rats as Assessed From the Decrease in Body Core Temperature
One week prior to treatments, 6 male Wistar rats were anaesthetized by administering 60 mg/kg of pentobarbital sodium [sodium 5-ethyl-5-(1-methylbutyl)barbiturate]intraperitoneally. Using sterile surgical procedures, TL11M2C50-PXT or TA10TA-F40 type radiotelemetry transmitters (Data Sciences International, St. Paul, Minn., USA) were implanted into the peritoneal cavity of the animals. The transmitters permitted continuous monitoring of the core body temperature. After implantation, the rats were treated with an antibiotic (benzathine-benzylpenicillin was administered in a dose of 1 ml/kg i.m.). [The chemical name of benzathine-benzylpenicillin: [2S-(2α,5α,6β)]-3,3-dimethyl-7-oxo-6-[(phenoxyacetyl)amino]-4-thia-1-azabicyclo[3.2.0]heptane-2-carboxylic acid]. The animals were housed individually in type 2 plastic rat cages with free access to food and tap water.
The compounds to be examined were dissolved in a mixture of 5 volumes of 5M aqueous hydrochloric acid and 95 volumes of water, then the pH value of the solution was adjusted to 3 by the addition of 1M aqueous sodium hydroxide solution. The solution obtained was administered intraperitoneally in a volume of 10 ml/kg.
Radio signals emitted by the transmitters were detected by RLA1000 or RLA2000 type receivers placed under each cage. Data were collected and saved by a Dataquest IV computerized data acquisition system. The computer was set to sample body temperature for 10 seconds in every second minute. Mean values for 30 min. periods over the whole day were calculated running the “sort utility” of the Dataquest IV system. The upper and lower limits of the evaluating routine were set to exclude biologically improbable values. Individual body temperature curves were averaged for the 6 animals.
Peak effect (PE) was measured as the maximum decrease in body temperature in comparison to the last value prior to treatment (control value). Using the mean values, duration of action (D) of the compounds was determined. This is the time interval from treatment to return of body temperature to the control level.

[1] = N-acetylation in rat liver slices (N-acetyl metabolite by HPLC); type: in vitro ADME, Wistar rats; conditions: 50 μM compound, 37° C.
Description: Reduction of the rate of N-acetylation due to ortho substitution
Liver slices of Wistar rats were incubated in oxigenized Krebs-Ringer solution at 37° C. in the presence of 50 μM of 2,3-benzodiazepine derivative examined. 0.5 ml aliquots were taken at the beginning of the examination, then after 30 and 60 minutes. Plasma proteins were precipitated with perchloric acid and, after alkalization, the 2,3-benzodiazepine derivatives were extracted with chloroform. The chloroform solutions were evaporated to dryness, the residue was dissolved in the corresponding eluent. The 2,3-benzodiazepine derivative used and the N-acetyl metabolite thereof were determined by high pressure liquid chromatography (Beckman System Gold HPLC, C-18 reversed-phase column) using an UV detector (at 240 nm). Different eluents were used for the optimal separation of the compounds. In case of the compound according to Example 1 and the corresponding 1-(4-amino-phenyl) analogue, the eluent consisted of a mixture of 50% of 2 mM heptafluoro-butyric acid, 25% of methanol and 25% of acetonitrile. For the compound according to Example 3 and the corresponding 1-(4-amino-phenyl) analogue, the eluent was a mixture of 50% of 2 mM heptafluorobutyric acid, 20% of methanol and 30% of acetonitrile. For the compound according to Example 4 and the corresponding 1-(4-amino-phenyl) analogue, the eluent consisted of a mixture of 50% of 2 mM heptafluorobutyric acid and 50% of acetonitrile.
The percentage of N-acetyl metabolite content of the sample taken at a certain time was calculated by dividing the hundredfold of the peak area of the metabolite with the sum of the peak areas of the 2,3-benzodiazepine derivative used and the N-acetyl metabolite. The results obtained are shown in Table 1 in which the concentrations determined after 0, 30 and 60 minutes are indicated.

Compound	PD50 (dose prolonging survival by 50%) (male NMRI mice) [mg/kg]	D (duration of action, time from treatment to return of body temperature to control level) (male Wistar rats) [h]	PE (peak effect, maximum decrease in body temperature vs. last value prior to treatment) (male Wistar rats)	also measured
COc1ccc2c(c1)C(c1ccc(N)c(C)c1)=NN(C(C)=O)C(C)C2 (racemic)	–	–	–	melting point: 169 to 171 °C
CC(=O)N1N=C(c2ccc(N)c(C)c2)c2ccc(Cl)cc2CC1C (racemic)	–	–	–	melting point: 200 to 205 °C
CC(=O)N1N=C(c2ccc(N)c(C)c2)c2cc(Cl)ccc2CC1C (racemic) [Example 1, (±)-3-Acetyl-1-(4-amino-3-methylphenyl)-4,5-dihydro-8-chloro-4-methyl-3H-2,3-benzodiazepine]	4.6	20	−2.34 Δ° C.	–
CCC(=O)N1N=C(c2ccc(N)c(C)c2)c2cc(Cl)ccc2CC1C (racemic) [Example 2, (±)-1-(4-Amino-3-methylphenyl)-4,5-dihydro-8-chloro-4-methyl-3-propionyl-3H-2,3-benzodiazepine]	–	6	−2.04 Δ° C.	–
CC(=O)N1N=C(c2ccc(N)c(Cl)c2)c2cc(Cl)ccc2CC1C (racemic) [Example 3, (±)-3-Acetyl-1-(4-amino-3-chlorophenyl)-4,5-dihydro-8-chloro-4-methyl-3H-2,3-benzodiazepine]	–	–	–	melting point: 143 to 144 °C
CC(=O)N1N=C(c2ccc(N)c(C)c2)c2cc(Cl)c(Cl)cc2CC1C (racemic) [Example 4, (±)-3-Acetyl-1-(4-amino-3-methylphenyl)-4,5-dihydro-7,8-dichloro-4-methyl-3H-2,3-benzodiazepine]	9.0	19	−3.09 Δ° C.	–
CCC(=O)N1N=C(c2ccc(N)c(C)c2)c2cc(Cl)c(Cl)cc2CC1C (racemic) [Example 5, (±)-1-(4-Amino-3-methylphenyl)-4,5-dihydro-7,8-dichloro-4-methyl-3-propionyl-3H-2,3-benzodiazepine]	12.3	–	–	–
CC(=O)N1N=C(c2ccc(N)cc2)c2cc(Cl)ccc2CC1C (stereo not shown) [Example 1a, 3-acetyl-1-(4-amino-phenyl)-4,5-dihydro-8-chloro-4-methyl-3H-2,3-benzo-diazepine, reference compound]	10.4	–	–	–
CC(=O)N1N=C(c2ccc(N)cc2)c2cc(Cl)ccc2CC1C (stereo not shown) [Example 1a, 3-acetyl-1-(4-amino-phenyl)-4,5-dihydro-8-chloro-4-methyl-3H-2,3-benzo-diazepine]	–	–	–	Amount of N-acetyl metabolite in % ([1]; incubation time 0 min): 0%; Amount of N-acetyl metabolite in % ([1]; incubation time 30 min): 18%; Amount of N-acetyl metabolite in % ([1]; incubation time 60 min): 31%
CCC(=O)N1N=C(c2ccc(N)cc2)c2cc(Cl)ccc2CC1C (stereo not shown) [Example 2a, 1-(4-aminophenyl)-4,5-dihydro-8-chloro-4-methyl-3-propionyl-3H-2,3-benzo-diazepine, reference compound]	–	4	−1.87 Δ° C.	–
CC(=O)N1N=C(c2ccc(N)cc2)c2cc(Cl)c(Cl)cc2CC1C (stereo not shown) [Example 4a, 3-acetyl-1-(4-amino-phenyl)-4,5-dihydro-7,8-dichloro-4-methyl-3H-2,3-benzo-diazepine, reference compound]	11.0	3.5	−1.72 Δ° C.	–
CCC(=O)N1N=C(c2ccc(N)cc2)c2cc(Cl)c(Cl)cc2CC1C (stereo not shown) [Example 5a, 1-(4-aminophenyl)-4,5-dihydro-7,8-dichloro-4-methyl-3-propionyl-3H-2,3-benzo-diazepine, reference compound]	14.6	–	–	–
